± gives the expanded uncertainty stated by the source.
How the values were obtained:
[1] = 101.33 kPa, Liquid, Vibrating tube method
[2] = xn = mol fraction of the nth substance listed; conditions: 101 kPa, Liquid; for mass density: Vibrating tube method

## CCCCCCCC[N+](C)(CCCCCCCC)CCCCCCCC.O=S(=O)([N-]S(=O)(=O)C(F)(F)F)C(F)(F)F
[1]; 298.15 K
  mass density: 1109.3 ± 6.1 kg/m3
[1]; 303.15 K
  mass density: 1105.1 ± 6.1 kg/m3
[1]; 313.15 K
  mass density: 1098.3 ± 6.1 kg/m3

## CCCCCCCC[N+](C)(CCCCCCCC)CCCCCCCC.O=S(=O)([N-]S(=O)(=O)C(F)(F)F)C(F)(F)F + CCCO
[2]; 298.15 K, x1 = 0.0736
  mass density: 919 ± 6 kg/m3
  speed of sound: 1187.7 ± 6.8 m/s
[2]; 298.15 K, x1 = 0.1146
  mass density: 956 ± 6 kg/m3
  speed of sound: 1178.1 ± 6.7 m/s
[2]; 298.15 K, x1 = 0.2152
  mass density: 1011 ± 6 kg/m3
  speed of sound: 1154.7 ± 6.7 m/s
[2]; 298.15 K, x1 = 0.3303
  mass density: 1045 ± 6 kg/m3
  speed of sound: 1127.9 ± 6.6 m/s
[2]; 298.15 K, x1 = 0.4033
  mass density: 1059 ± 6 kg/m3
  speed of sound: 1110.9 ± 6.5 m/s
[2]; 298.15 K, x1 = 0.524
  mass density: 1076 ± 6 kg/m3
  speed of sound: 1082.8 ± 6.5 m/s
[2]; 298.15 K, x1 = 0.6882
  mass density: 1091 ± 6 kg/m3
[2]; 298.15 K, x1 = 0.7833
  mass density: 1098 ± 6 kg/m3
  speed of sound: 1022.4 ± 6.3 m/s
[2]; 298.15 K, x1 = 0.8439
  mass density: 1102 ± 6 kg/m3
  speed of sound: 1008.3 ± 6.3 m/s
[2]; 298.15 K, x1 = 0.9533
  mass density: 1107 ± 6 kg/m3
  speed of sound: 982.9 ± 6.2 m/s
[2]; 298.15 K, x1 = 0.6682
  speed of sound: 1049.2 ± 6.4 m/s
[2]; 303.15 K, x1 = 0.0736
  mass density: 915 ± 6 kg/m3
[2]; 303.15 K, x1 = 0.1146
  mass density: 952 ± 6 kg/m3
[2]; 303.15 K, x1 = 0.2152
  mass density: 1006 ± 6 kg/m3
[2]; 303.15 K, x1 = 0.3303
  mass density: 1041 ± 6 kg/m3
[2]; 303.15 K, x1 = 0.4033
  mass density: 1055 ± 6 kg/m3
[2]; 303.15 K, x1 = 0.524
  mass density: 1072 ± 6 kg/m3
[2]; 303.15 K, x1 = 0.6882
  mass density: 1087 ± 6 kg/m3
[2]; 303.15 K, x1 = 0.7833
  mass density: 1094 ± 6 kg/m3
[2]; 303.15 K, x1 = 0.8439
  mass density: 1097 ± 6 kg/m3
[2]; 303.15 K, x1 = 0.9533
  mass density: 1103 ± 6 kg/m3
[2]; 313.15 K, x1 = 0.0736
  mass density: 907 ± 6 kg/m3
[2]; 313.15 K, x1 = 0.1146
  mass density: 944 ± 6 kg/m3
[2]; 313.15 K, x1 = 0.2152
  mass density: 999 ± 6 kg/m3
[2]; 313.15 K, x1 = 0.3303
  mass density: 1033 ± 6 kg/m3
[2]; 313.15 K, x1 = 0.4033
  mass density: 1047 ± 6 kg/m3
[2]; 313.15 K, x1 = 0.524
  mass density: 1064 ± 6 kg/m3
[2]; 313.15 K, x1 = 0.6882
  mass density: 1080 ± 6 kg/m3
[2]; 313.15 K, x1 = 0.7833
  mass density: 1087 ± 6 kg/m3
[2]; 313.15 K, x1 = 0.8439
  mass density: 1090 ± 6 kg/m3
[2]; 313.15 K, x1 = 0.9533
  mass density: 1096 ± 6 kg/m3

## CCCCCCCC[N+](C)(CCCCCCCC)CCCCCCCC.O=S(=O)([N-]S(=O)(=O)C(F)(F)F)C(F)(F)F + CCO
[2]; 298.15 K, x1 = 0.0484
  mass density: 896 ± 6 kg/m3
[2]; 298.15 K, x1 = 0.1731
  mass density: 1005 ± 6 kg/m3
  speed of sound: 1116.1 ± 6.5 m/s
[2]; 298.15 K, x1 = 0.2728
  mass density: 1041 ± 6 kg/m3
  speed of sound: 1098.8 ± 6.4 m/s
[2]; 298.15 K, x1 = 0.3353
  mass density: 1055 ± 6 kg/m3
  speed of sound: 1087.9 ± 6.4 m/s
[2]; 298.15 K, x1 = 0.4286
  mass density: 1070 ± 6 kg/m3
  speed of sound: 1071.6 ± 6.4 m/s
[2]; 298.15 K, x1 = 0.5145
  mass density: 1080 ± 6 kg/m3
  speed of sound: 1056.6 ± 6.3 m/s
[2]; 298.15 K, x1 = 0.6307
  mass density: 1090 ± 6 kg/m3
  speed of sound: 1036.4 ± 6.3 m/s
[2]; 298.15 K, x1 = 0.7338
  mass density: 1097 ± 6 kg/m3
  speed of sound: 1018.4 ± 6.3 m/s
[2]; 298.15 K, x1 = 0.7774
  mass density: 1099 ± 6 kg/m3
  speed of sound: 1010.8 ± 6.3 m/s
[2]; 298.15 K, x1 = 0.9393
  mass density: 1107 ± 6 kg/m3
[2]; 298.15 K, x1 = 0.9493
  speed of sound: 980.8 ± 6.2 m/s
[2]; 303.15 K, x1 = 0.0484
  mass density: 896 ± 6 kg/m3
[2]; 303.15 K, x1 = 0.1731
  mass density: 1003 ± 6 kg/m3
[2]; 303.15 K, x1 = 0.2728
  mass density: 1036 ± 6 kg/m3
[2]; 303.15 K, x1 = 0.3353
  mass density: 1050 ± 6 kg/m3
[2]; 303.15 K, x1 = 0.4286
  mass density: 1063 ± 6 kg/m3
[2]; 303.15 K, x1 = 0.5145
  mass density: 1072 ± 6 kg/m3
[2]; 303.15 K, x1 = 0.6307
  mass density: 1082 ± 6 kg/m3
[2]; 303.15 K, x1 = 0.7338
  mass density: 1090 ± 6 kg/m3
[2]; 303.15 K, x1 = 0.7774
  mass density: 1092 ± 6 kg/m3
[2]; 303.15 K, x1 = 0.9493
  mass density: 1103 ± 6 kg/m3
[2]; 313.15 K, x1 = 0.0484
  mass density: 883 ± 6 kg/m3
[2]; 313.15 K, x1 = 0.1731
  mass density: 994 ± 6 kg/m3
[2]; 313.15 K, x1 = 0.2728
  mass density: 1029 ± 6 kg/m3
[2]; 313.15 K, x1 = 0.3353
  mass density: 1044 ± 6 kg/m3
[2]; 313.15 K, x1 = 0.4286
  mass density: 1058 ± 6 kg/m3
[2]; 313.15 K, x1 = 0.5145
  mass density: 1068 ± 6 kg/m3
[2]; 313.15 K, x1 = 0.6307
  mass density: 1078 ± 6 kg/m3
[2]; 313.15 K, x1 = 0.7338
  mass density: 1085 ± 6 kg/m3
[2]; 313.15 K, x1 = 0.7774
  mass density: 1087 ± 6 kg/m3
[2]; 313.15 K, x1 = 0.9493
  mass density: 1096 ± 6 kg/m3

## CCCCCCCC[N+](C)(CCCCCCCC)CCCCCCCC.O=S(=O)([N-]S(=O)(=O)C(F)(F)F)C(F)(F)F + CO
[2]; 298.15 K, x1 = 0.0781
  mass density: 958 ± 6 kg/m3
[2]; 298.15 K, x1 = 0.1291
  mass density: 999 ± 6 kg/m3
  speed of sound: 1085.4 ± 6.4 m/s
[2]; 298.15 K, x1 = 0.2125
  mass density: 1037 ± 6 kg/m3
  speed of sound: 1074.5 ± 6.3 m/s
[2]; 298.15 K, x1 = 0.35
  mass density: 1068 ± 6 kg/m3
[2]; 298.15 K, x1 = 0.4172
  mass density: 1077 ± 6 kg/m3
  speed of sound: 1047.9 ± 6.3 m/s
[2]; 298.15 K, x1 = 0.5362
  mass density: 1089 ± 6 kg/m3
  speed of sound: 1032.4 ± 6.2 m/s
[2]; 298.15 K, x1 = 0.6529
  mass density: 1097 ± 6 kg/m3
[2]; 298.15 K, x1 = 0.7084
  mass density: 1100 ± 6 kg/m3
  speed of sound: 1010 ± 6.2 m/s
[2]; 298.15 K, x1 = 0.8522
  mass density: 1106 ± 6 kg/m3
  speed of sound: 991.2 ± 6.2 m/s
[2]; 298.15 K, x1 = 0.9345
  mass density: 1108 ± 6 kg/m3
[2]; 298.15 K, x1 = 0.0336
  speed of sound: 1097.8 ± 6.4 m/s
[2]; 298.15 K, x1 = 0.6611
  speed of sound: 1016.1 ± 6.2 m/s
[2]; 303.15 K, x1 = 0.0781
  mass density: 954 ± 6 kg/m3
[2]; 303.15 K, x1 = 0.1291
  mass density: 994 ± 6 kg/m3
[2]; 303.15 K, x1 = 0.2125
  mass density: 1031 ± 6 kg/m3
[2]; 303.15 K, x1 = 0.35
  mass density: 1062 ± 6 kg/m3
[2]; 303.15 K, x1 = 0.4172
  mass density: 1071 ± 6 kg/m3
[2]; 303.15 K, x1 = 0.5362
  mass density: 1083 ± 6 kg/m3
[2]; 303.15 K, x1 = 0.6529
  mass density: 1092 ± 6 kg/m3
[2]; 303.15 K, x1 = 0.7084
  mass density: 1095 ± 6 kg/m3
[2]; 303.15 K, x1 = 0.8522
  mass density: 1102 ± 6 kg/m3
[2]; 303.15 K, x1 = 0.9345
  mass density: 1104 ± 6 kg/m3
[2]; 313.15 K, x1 = 0.0781
  mass density: 940 ± 6 kg/m3
[2]; 313.15 K, x1 = 0.1291
  mass density: 982 ± 6 kg/m3
[2]; 313.15 K, x1 = 0.2125
  mass density: 1022 ± 6 kg/m3
[2]; 313.15 K, x1 = 0.35
  mass density: 1055 ± 6 kg/m3
[2]; 313.15 K, x1 = 0.4172
  mass density: 1064 ± 6 kg/m3
[2]; 313.15 K, x1 = 0.5362
  mass density: 1076 ± 6 kg/m3
[2]; 313.15 K, x1 = 0.6529
  mass density: 1085 ± 6 kg/m3
[2]; 313.15 K, x1 = 0.7084
  mass density: 1088 ± 6 kg/m3
[2]; 313.15 K, x1 = 0.8522
  mass density: 1095 ± 6 kg/m3
[2]; 313.15 K, x1 = 0.9345
  mass density: 1097 ± 6 kg/m3

## CCO [ethanol]
[1]; 298.15 K
  mass density: 785.5 ± 6 kg/m3
[1]; 303.15 K
  mass density: 782 ± 6 kg/m3
[1]; 313.15 K
  mass density: 773.7 ± 6 kg/m3

## CO [methanol]
[1]; 298.15 K
  mass density: 786 ± 6 kg/m3
[1]; 303.15 K
  mass density: 783.4 ± 6 kg/m3
[1]; 313.15 K
  mass density: 774.6 ± 6 kg/m3

## CCCO [propan-1-ol]
[1]; 298.15 K
  mass density: 799.4 ± 6 kg/m3
[1]; 303.15 K
  mass density: 796.4 ± 6 kg/m3
[1]; 313.15 K
  mass density: 788.6 ± 6 kg/m3

Reference: the NIST ThermoML archive (doi:10.1016/j.jct.2008.03.007)
